The values that follow come from patent US20120225062A1 (priority 2011, published 2012).

Test [1] deals with KMS11 (human myeloma cell line). Nature of the test: Cell Proliferation Assay (CellTiter-Glo, 3 days). In kind it is cell-based. To be noted: KMS-11, 72 h, KMS11-luc cells. The method, boiled down:
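EC50 from CellTiter-Glo luminescence after 3-day, 37° C compound treatment of KMS11 cells seeded at 2000 per well in IMDM plus 10% FBS.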
For orientation: In ATP-based viability assays light output follows the ATP content of the culture.

For another test, the target named is Pim 3 (Homo sapiens, UniProt Q86V86). Kind of test: Pim 3 AlphaScreen assay (high ATP). For orientation: In Alpha technology, singlet oxygen from a donor bead excites a nearby acceptor bead.
The target of a further test is Pim 1 (Homo sapiens, UniProt P11309). Nature of the test: Pim 1 AlphaScreen assay (high ATP).
The next test has as its target Pim 2 (Homo sapiens, UniProt Q9P1W9). Kind of test: Pim 2 AlphaScreen assay (high ATP).

Sequence of Pim 1 (P11309 whole entry): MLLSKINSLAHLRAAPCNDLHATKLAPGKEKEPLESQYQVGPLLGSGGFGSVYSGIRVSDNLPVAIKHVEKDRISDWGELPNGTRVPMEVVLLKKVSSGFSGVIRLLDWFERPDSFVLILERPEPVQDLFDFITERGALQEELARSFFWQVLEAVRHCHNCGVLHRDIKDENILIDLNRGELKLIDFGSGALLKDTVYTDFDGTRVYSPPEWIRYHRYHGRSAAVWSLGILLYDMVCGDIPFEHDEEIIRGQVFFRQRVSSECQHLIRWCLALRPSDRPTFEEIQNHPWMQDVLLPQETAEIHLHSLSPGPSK
Sequence of Pim 2 (Q9P1W9 whole entry): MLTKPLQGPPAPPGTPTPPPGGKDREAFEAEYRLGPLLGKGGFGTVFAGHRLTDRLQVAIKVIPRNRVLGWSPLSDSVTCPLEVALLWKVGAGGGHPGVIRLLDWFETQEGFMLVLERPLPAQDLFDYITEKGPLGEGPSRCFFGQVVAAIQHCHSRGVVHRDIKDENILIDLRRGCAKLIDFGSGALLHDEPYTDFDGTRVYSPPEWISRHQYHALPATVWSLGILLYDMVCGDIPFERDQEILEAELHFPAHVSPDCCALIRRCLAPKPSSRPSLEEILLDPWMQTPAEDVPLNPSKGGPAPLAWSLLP
Procedure for Pim 2: (§1) The activity of Pim 1, Pim 2, & Pim 3 is measured using a homogeneous bead based system quantifying the amount of phosphorylated peptide substrate resulting from kinase-catalyzed phosphoryl transfer to a peptide substrate. Compounds to be tested are dissolved in 100% DMSO and directly distributed to a white 384-well plate at 0.25 μl per well. […] This is followed by the addition of 5 μl/well of Pim 1, Pim 2 or Pim 3 kinase in assay buffer (concentrations described below). Final assay concentrations (described below) are in 2.5% DMSO. The reactions are performed for ˜2 hours, then stopped by the addition of 10 μl of 0.75 μg/ml anti-phospho Ser/Thr antibody (Cell Signaling), 10 μg/ml Protein A AlphaScreen beads (Perkin Elmer), and 10 μg/ml streptavidin coated AlphaScreen beads in stop/detection buffer (50 mM EDTA, 95 mM Tris, pH=7.5, 0.01% Tween-20). The stopped reactions are incubated overnight in the dark. The phosphorylated peptide is detected via an oxygen anion initiated chemiluminescence/fluorescence cascade using the Envision plate reader (Perkin Elmer).
Procedure for Pim 3: as §1

As a reminder, the EC50 is the midpoint of the concentration-response curve. By IC50 is commonly meant the concentration that inhibits the measured activity by half. On to `C[C@H]1C[C@@H](c2ccncc2NC(=O)c2ccc(F)c(-c3c(F)cc(COC4CCOCC4)cc3F)n2)C[C@@H](N)[C@@H]1O` [Example 138, N-(4-((1R,3R,4R,5S)-3-amino-4-hydroxy-5-methylcyclohexyl)pyridin-3-yl)-6-(2,6-difluoro-4-((tetrahydro-2H-pyran-4-yloxy)methyl)phenyl)-5-fluoropicolinamide], for which, in test [1], the EC50 was found to be 324 nM. The concentration for half-maximal inhibition (IC50) worked out at 2.39 nM against Pim 3, 0.08 nM against Pim 1 and 3.3 nM at Pim 2.
As to `CC(C)[C@@H]1C[C@H](N)C[C@H](c2ccncc2NC(=O)c2ccc(F)c(-c3c(F)cc(C4CCOCC4)cc3F)n2)C1` [Example 139, N-(4-((1R,3S,5S)-3-amino-5-isopropylcyclohexyl)pyridin-3-yl)-6-(2,6-difluoro-4-(tetrahydro-2H-pyran-4-yl)phenyl)-5-fluoropicolinamide], in test [1], a half-maximal response (EC50) required 153 nM. In addition, the values for the IC50 on Pim 3, against Pim 1 and on Pim 2 were 0.36 nM, 0.01 nM and 0.63 nM, respectively.
On the same counts, the results for `C[C@H]1C[C@@H](c2ccncc2NC(=O)c2ccc(F)c(-c3c(F)cc(OC4CCOCC4)cc3F)n2)C[C@@H](N)[C@H]1O` [Example 140, N-(4-((1R,3R,4S,5S)-3-amino-4-hydroxy-5-methylcyclohexyl)pyridin-3-yl)-6-(2,6-difluoro-4-(tetrahydro-2H-pyran-4-yloxy)phenyl)-5-fluoropicolinamide] are 863 nM, 1.71 nM, 0.04 nM and 6.05 nM.
`CCOCCOc1cc(F)c(-c2nc(C(=O)Nc3cnccc3[C@H]3C[C@@H](N)[C@H](O)[C@@H](C)C3)ccc2F)c(F)c1` [Example 141, N-(4-((1R,3R,4R,5S)-3-amino-4-hydroxy-5-methylcyclohexyl)pyridin-3-yl)-6-(4-(2-ethoxyethoxy)-2,6-difluorophenyl)-5-fluoropicolinamide] showed an EC50 in test [1] of 2510 nM. For the same compound, the values for the IC50 at Pim 3, on Pim 1 and against Pim 2 were 16 nM, 0.45 nM and 37.4 nM, respectively.
The matching figures for `C[C@@H]1C[C@H](N)C[C@H](c2ccncc2NC(=O)c2ccc(F)c(-c3c(F)cc(-c4ccnnc4)cc3F)n2)C1` [Example 142, N-(4-((1R,3S,5S)-3-amino-5-methylcyclohexyl)pyridin-3-yl)-6-(2,6-difluoro-4-(pyridazin-4-yl)phenyl)-5-fluoropicolinamide]: 1640 nM, 17.8 nM, 0.12 nM and 28.4 nM.
The matching figures for `C[C@@H]1C[C@H](N)C[C@H](c2ccncc2NC(=O)c2ccc(F)c(-c3c(F)cc(OCC(=O)N(C)C)cc3F)n2)C1` [Example 143, N-(4-((1R,3S,5S)-3-amino-5-methylcyclohexyl)pyridin-3-yl)-6-(4-(2-(dimethylamino)-2-oxoethoxy)-2,6-difluorophenyl)-5-fluoropicolinamide]: 197 nM, 0.77 nM, 0.05 nM and 9.42 nM.
The matching figures for `CCOC(C)(C)c1cc(F)c(-c2nc(C(=O)Nc3cnccc3[C@@H]3C[C@H](C)C[C@H](N)C3)ccc2F)c(F)c1` [Example 145, N-(4-((1R,3S,5S)-3-amino-5-methylcyclohexyl)pyridin-3-yl)-6-(4-(2-ethoxypropan-2-yl)-2,6-difluorophenyl)-5-fluoropicolinamide]: 244 nM, 1.99 nM, 0.03 nM and 3.5 nM.
`CCOC(C)(C)c1cc(F)c(-c2nc(C(=O)Nc3cnccc3[C@H]3C[C@@H](N)[C@H](O)[C@@H](C)C3)ccc2F)c(F)c1` [Example 146, N-(4-((1R,3R,4R,5S)-3-amino-4-hydroxy-5-methylcyclohexyl)pyridin-3-yl)-6-(4-(2-ethoxypropan-2-yl)-2,6-difluorophenyl)-5-fluoropicolinamide] returned an EC50 in test [1] of 526 nM. Moreover, the IC50 against Pim 3 was found to be 6.34 nM; against Pim 1 it was 0.09 nM; on Pim 2, 5.58 nM.
The matching figures for `CC(C)OCc1cc(F)c(-c2nc(C(=O)Nc3cnccc3[C@@H]3C[C@H](C)C[C@H](N)C3)ccc2F)c(F)c1` [Example 147, N-(4-((1R,3S,5S)-3-amino-5-methylcyclohexyl)pyridin-3-yl)-6-(2,6-difluoro-4-(isopropoxymethyl)phenyl)-5-fluoropicolinamide]: 146 nM, 1.03 nM, 0.02 nM and 2.77 nM.
On the same counts, the results for `CC(C)OCc1cc(F)c(-c2nc(C(=O)Nc3cnccc3[C@H]3C[C@@H](N)[C@H](O)[C@@H](C)C3)ccc2F)c(F)c1` [Example 148, N-(4-((1R,3R,4R,5S)-3-amino-4-hydroxy-5-methylcyclohexyl)pyridin-3-yl)-6-(2,6-difluoro-4-(isopropoxymethyl)phenyl)-5-fluoropicolinamide] are 185 nM, 1.47 nM, 0.05 nM and 3.28 nM.
On the same counts, the results for `C[C@@H]1C[C@H](N)C[C@H](c2ccncc2NC(=O)c2ccc(F)c(-c3c(F)cc(COC4CCOCC4)cc3F)n2)C1` [Example 149, N-(4-((1R,3S,5S)-3-amino-5-methylcyclohexyl)pyridin-3-yl)-6-(2,6-difluoro-4-((tetrahydro-2H-pyran-4-yloxy)methyl)phenyl)-5-fluoropicolinamide] are 148 nM, 1.72 nM, 0.03 nM and 2.96 nM.
`N[C@H]1CCC[C@@H](c2ccncc2NC(=O)c2ccc(F)c(-c3c(F)cc(COC4CCOCC4)cc3F)n2)C1` [Example 154, N-(4-((1R,3S)-3-aminocyclohexyl)pyridin-3-yl)-6-(2,6-difluoro-4-((tetrahydro-2H-pyran-4-yloxy)methyl)phenyl)-5-fluoropicolinamide] showed an EC50 in test [1] of 492 nM. Also, the IC50 came to 5.22 nM at Pim 3, 0.1 nM against Pim 1 and 32 nM at Pim 2.
On the same counts, the results for `C[C@@H]1C[C@H](N)C[C@H](c2ccncc2NC(=O)c2ccc(F)c(-c3c(F)cc(C4(O)CCCC4)cc3F)n2)C1` [Example 163, N-(4-((1R,3S,5S)-3-amino-5-methylcyclohexyl)pyridin-3-yl)-6-(2,6-difluoro-4-(1-hydroxycyclopentyl)phenyl)-5-fluoropicolinamide] are 33 nM, 0.17 nM, 0.01 nM and 0.93 nM.
The matching figures for `C[C@@H]1C[C@H](N)C[C@H](c2ccncc2NC(=O)c2ccc(F)c(-c3c(F)cc(C(C)(C)C#N)cc3F)n2)C1` [Example 164, N-(4-((1R,3S,5S)-3-amino-5-methylcyclohexyl)pyridin-3-yl)-6-(4-(2-cyanopropan-2-yl)-2,6-difluorophenyl)-5-fluoropicolinamide]: 88 nM, 2.04 nM, 0.02 nM and 2.13 nM.
On the same counts, the results for `C[C@H]1C[C@@H](c2ccncc2NC(=O)c2ccc(F)c(-c3c(F)cc(C(C)(C)C#N)cc3F)n2)C[C@@H](N)[C@@H]1O` [Example 165, N-(4-((1R,3R,4R,5S)-3-amino-4-hydroxy-5-methylcyclohexyl)pyridin-3-yl)-6-(4-(2-cyanopropan-2-yl)-2,6-difluorophenyl)-5-fluoropicolinamide] are 78 nM, 2.3 nM, 0.04 nM and 1.87 nM.
Turning to `C[C@@H]1C[C@H](N)C[C@H](c2ccncc2NC(=O)c2ccc(F)c(-c3c(F)cc(N4CCOCC4)cc3F)n2)C1` [Example 168, N-(4-((1R,3S,5S)-3-amino-5-methylcyclohexyl)pyridin-3-yl)-6-(2,6-difluoro-4-morpholinophenyl)-5-fluoropicolinamide], in test [1], the EC50 was determined as 52 nM. In addition, the IC50 was 0.95 nM at Pim 3, 0.02 nM against Pim 1 and 1.36 nM on Pim 2.
On the same counts, the results for `C[C@H]1C[C@@H](c2ccncc2NC(=O)c2ccc(F)c(-c3c(F)cc(N4CCOCC4)cc3F)n2)C[C@@H](N)[C@@H]1O` [Example 169, N-(4-((1R,3R,4R,5S)-3-amino-4-hydroxy-5-methylcyclohexyl)pyridin-3-yl)-6-(2,6-difluoro-4-morpholinophenyl)-5-fluoropicolinamide] are 34 nM, 0.38 nM, 0.01 nM and 1.16 nM.
As for `C[C@@H]1C[C@H](N)C[C@H](c2ccncc2NC(=O)c2ccc(F)c(-c3c(F)cc(C4(C#N)CCOCC4)cc3F)n2)C1` [Example 170, N-(4-((1R,3S,5S)-3-amino-5-methylcyclohexyl)pyridin-3-yl)-6-(4-(4-cyanotetrahydro-2H-pyran-4-yl)-2,6-difluorophenyl)-5-fluoropicolinamide], the EC50 in test [1] was determined as 84 nM. Also, the IC50 on Pim 3 amounted to 4.54 nM; on Pim 1, 0.03 nM; on Pim 2 it was 2.83 nM.
In turn, `N#CC1(c2cc(F)c(-c3nc(C(=O)Nc4cnccc4[C@@H]4CCC[C@H](N)C4)ccc3F)c(F)c2)CCOCC1` [Example 172, N-(4-((1R,3S)-3-aminocyclohexyl)pyridin-3-yl)-6-(4-(4-cyanotetrahydro-2H-pyran-4-yl)-2,6-difluorophenyl)-5-fluoropicolinamide] had an EC50 in test [1] of 403 nM. The results for the IC50 at Pim 3, against Pim 1 and against Pim 2 were 19.6 nM, 0.08 nM and 29.7 nM, respectively.
